Data on seven compounds can be found in ChEMBL document CHEMBL1201862, “PubChem BioAssay data set” (2004).

Test [1] addresses Casein kinase I isoform delta (Homo sapiens, UniProt P48730). The format is functional.
Test [2] deals with LIM domain kinase 1 (Homo sapiens, UniProt P53667). The test can be described thus: Navigating the Kinome. Panel member name: LIMK1. The format is functional.
The target in test [3] is Focal adhesion kinase 1 (Homo sapiens, UniProt Q05397). The format is functional.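 Note: measured as one member of a kinome panel.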
For test [4], the target named is T1, High affinity choline transporter 1 (Homo sapiens, UniProt Q9GZV3).
T1 sequence (Q9GZV3 whole entry): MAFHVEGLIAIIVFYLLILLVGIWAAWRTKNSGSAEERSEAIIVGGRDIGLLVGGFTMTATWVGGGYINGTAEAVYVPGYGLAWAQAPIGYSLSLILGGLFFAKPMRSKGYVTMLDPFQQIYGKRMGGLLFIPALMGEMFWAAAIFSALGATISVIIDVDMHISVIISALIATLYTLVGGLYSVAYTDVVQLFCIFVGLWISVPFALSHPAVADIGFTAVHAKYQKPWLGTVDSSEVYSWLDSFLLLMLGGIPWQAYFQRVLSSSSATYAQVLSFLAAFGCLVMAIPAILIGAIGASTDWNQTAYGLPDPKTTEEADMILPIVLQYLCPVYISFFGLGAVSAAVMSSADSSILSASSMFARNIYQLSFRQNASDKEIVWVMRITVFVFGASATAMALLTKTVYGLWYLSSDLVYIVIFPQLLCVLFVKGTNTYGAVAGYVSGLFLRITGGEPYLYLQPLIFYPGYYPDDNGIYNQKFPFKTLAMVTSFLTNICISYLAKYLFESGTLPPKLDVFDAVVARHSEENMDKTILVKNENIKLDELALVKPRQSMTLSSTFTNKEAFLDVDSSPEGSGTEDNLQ
The test can be described thus: human choline transporter blockers, potency – cell-based, 5-point CRC, membrane potential dye, dose response (AID 504840). The format is functional.

Test [5] can be described thus: NIH3T3 cell viability loss – ATP luminescence, mouse fibroblasts, counter-screen, dose response (AID 2010).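 Note: cells exposed to compound for about 90 hours before reading.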 The format is functional, cell-based. For orientation: Counterscreens check selectivity or assay interference.
The target of test [6] is T2, Coagulation factor XII (Homo sapiens, UniProt P00748).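 Note: activated factor XIIa alpha cleaving a fluorogenic AMC peptide substrate; inhibitor potency from loss of enzyme activity.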
T2 sequence (P00748 whole entry): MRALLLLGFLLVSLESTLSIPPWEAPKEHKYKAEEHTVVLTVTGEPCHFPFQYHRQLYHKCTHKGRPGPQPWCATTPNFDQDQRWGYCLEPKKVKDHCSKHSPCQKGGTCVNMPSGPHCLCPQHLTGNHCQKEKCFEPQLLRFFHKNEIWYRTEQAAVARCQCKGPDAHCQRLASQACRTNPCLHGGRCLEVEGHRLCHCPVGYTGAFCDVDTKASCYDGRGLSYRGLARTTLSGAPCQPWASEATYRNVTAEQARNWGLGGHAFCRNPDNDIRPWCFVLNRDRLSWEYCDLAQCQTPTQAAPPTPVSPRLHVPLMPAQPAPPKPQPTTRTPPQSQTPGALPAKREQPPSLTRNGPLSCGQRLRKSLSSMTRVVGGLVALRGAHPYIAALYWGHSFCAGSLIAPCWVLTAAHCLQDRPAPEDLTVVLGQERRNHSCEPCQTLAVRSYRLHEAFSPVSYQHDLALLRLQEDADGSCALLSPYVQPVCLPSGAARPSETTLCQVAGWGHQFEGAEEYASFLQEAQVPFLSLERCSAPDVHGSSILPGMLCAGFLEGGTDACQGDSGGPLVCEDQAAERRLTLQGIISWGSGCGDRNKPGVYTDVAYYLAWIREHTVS
Format: functional.

Test [7] has as its target T3, Bcl-2-related protein A1 (Mus musculus, UniProt Q07440).
T3 sequence (Q07440 whole entry): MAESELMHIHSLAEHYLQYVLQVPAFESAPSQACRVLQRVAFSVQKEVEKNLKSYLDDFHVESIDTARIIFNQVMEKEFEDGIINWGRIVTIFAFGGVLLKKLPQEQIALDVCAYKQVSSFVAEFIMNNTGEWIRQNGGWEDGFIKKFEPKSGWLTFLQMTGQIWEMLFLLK
The experiment in a line: displacement of Bid BH3 peptide from Bfl-1 – biochemical, fluorescence polarization, FITC-Bid, mouse, primary screen (AID 432). (In general: In fluorescence polarisation assays a small probe gives low polarisation when free and higher when bound to something large.)

For test [8], the target named is Protein Rev (Human immunodeficiency virus type 1 group M subtype B (isolate HXB2)(HIV-1), UniProt P04618). The test can be described thus: blockers of HIV Rev/RRE RNA complex – biochemical, fluorescence polarization, HIV-1, dose response (AID 434976). Further details: species or system Human immunodeficiency virus 1.
For test [9], the target named is Female germline-specific tumor suppressor gld-1 (Caenorhabditis elegans, UniProt Q17339). The experiment in a line: blockers of GLD-1/TGE RNA complex formation – biochemical, fluorescence polarization, C. elegans, dose response (AID 2802).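 Note: fluorescence polarization of labeled TGE RNA bound by purified gld-1 protein.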
Test [10] deals with Activin receptor type-1 (Homo sapiens, UniProt Q04771). The test can be described thus: Navigating the Kinome. Panel member name: ACVR1. Format: functional.
In test [11] the target is Aurora kinase B (Homo sapiens, UniProt Q96GD4). Format: functional.
Test [12] concerns the target Mitogen-activated protein kinase 8 (Homo sapiens, UniProt P45983). Format: functional.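 Note: value comes from one member of a kinome-wide kinase profiling panel.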
Test [13] addresses G protein-coupled receptor kinase 5 (Homo sapiens, UniProt P34947). The test can be described thus: Navigating the Kinome. Panel member name: GPRK5. The format is functional.
Test [14] addresses Activated CDC42 kinase 1 (Homo sapiens, UniProt Q07912). The experiment in a line: Navigating the Kinome. Panel member name: ACK1. The format is functional.
The target in test [15] is Tyrosine-protein kinase BTK (Homo sapiens, UniProt Q06187). Format: functional.
For test [16], the target named is Leukocyte tyrosine kinase receptor (Homo sapiens, UniProt P29376). The test can be described thus: Navigating the Kinome. Panel member name: LTK. The format is functional.
Test [17] can be described thus: cells. Format: functional.
In test [18] the target is Sphingosine 1-phosphate receptor 1 (Homo sapiens, UniProt P21453). Format: functional.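 Note: Tango beta-arrestin reporter U2OS cells stimulated with S1P near its EC80; inhibitor potency meaning antagonism of receptor activation by the natural agonist.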
Test [19] in a line: HepG2 cell cytotoxicity, dose response, cytotoxicity control for non-replicating M. tuberculosis project (AID 489018). The format is functional. Particulars: Mycobacterium tuberculosis.
The target in test [20] is Beta-galactosidase (Escherichia coli, UniProt Q8VNN2). The test can be described thus: detection-enzyme interference by beta-gal modulators – biochemical, E. coli enzyme, set 3, artefact control for CCR6 antagonist project, dose response (AID 504712). Format: functional.
Test [21] addresses Kappa-type opioid receptor (Homo sapiens, UniProt P41145). The format is functional.
The nature of test [22]: general cell-killing toxicity readout – plate reader, dry powder samples, cytotoxicity control for PAX8 inhibitor project, dose response (AID 743021). The format is functional, cell-based.
Test [23] in a line: viability loss in THP-1 monocytes – THP-1 cells, cytotoxicity control for Vif-APOBEC3G degradation inhibitor project, dose response (AID 1117359). Format: functional. As to conditions: THP-1.
The nature of test [24]: off-target signal loss in HeLa-CEM21 co-culture – HeLa F-luc CTL cells, cherry-picked, counter-screen for HIV-1 Env fusion inhibitor project, dose response (AID 652040).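 Note: potency for signal decrease marking cytotoxic or nonspecific inhibition.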 The format is functional, cell-based.
Test [25] is described as follows: reduction of Shn3 3'UTR-driven luciferase in osteoblasts – cell-based, Clone20 osteoblasts, firefly luciferase, cherry-picked, dose response (AID 624132).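 Note: firefly luciferase luminescence from reporter carrying the Shn3 3'UTR in osteoblasts.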 The format is functional.

The structures appear in SMILES notation. Active and inactive are the calls of the source. Some results are limits rather than exact numbers.

What is called Ki is a dissociation constant, usually derived from enzyme kinetics or from competition with a known ligand. What is called IC50 is the point on the concentration scale where inhibition reaches its midpoint. Usually EC50 stands for the concentration needed to bring the measured effect to its halfway point. Usually CC50 stands for the concentration giving 50% cytotoxicity. The AC50 is the midpoint of the concentration-response curve, whichever way the signal moves.

LIM domain kinase 1, sequence (P53667 whole entry, the tested form may be a part): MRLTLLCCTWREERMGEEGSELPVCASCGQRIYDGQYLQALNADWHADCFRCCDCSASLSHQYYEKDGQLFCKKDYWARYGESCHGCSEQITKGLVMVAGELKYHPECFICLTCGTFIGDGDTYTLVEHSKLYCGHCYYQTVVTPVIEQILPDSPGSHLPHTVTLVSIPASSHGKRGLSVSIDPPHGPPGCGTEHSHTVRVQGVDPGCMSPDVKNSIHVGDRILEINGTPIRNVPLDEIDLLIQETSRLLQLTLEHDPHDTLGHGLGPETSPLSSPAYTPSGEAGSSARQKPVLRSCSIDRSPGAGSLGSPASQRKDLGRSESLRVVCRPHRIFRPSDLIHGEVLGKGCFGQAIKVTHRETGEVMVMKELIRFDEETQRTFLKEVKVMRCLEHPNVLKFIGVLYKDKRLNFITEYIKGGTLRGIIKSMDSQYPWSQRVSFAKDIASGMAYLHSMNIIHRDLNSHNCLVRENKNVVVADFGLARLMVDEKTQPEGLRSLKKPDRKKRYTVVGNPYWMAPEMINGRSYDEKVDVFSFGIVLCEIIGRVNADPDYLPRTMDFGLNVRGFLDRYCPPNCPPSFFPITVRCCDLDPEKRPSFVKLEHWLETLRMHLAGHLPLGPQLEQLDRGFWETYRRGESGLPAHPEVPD
Casein kinase I isoform delta, sequence (P48730 whole entry, the tested form may be a part, canonical isoform): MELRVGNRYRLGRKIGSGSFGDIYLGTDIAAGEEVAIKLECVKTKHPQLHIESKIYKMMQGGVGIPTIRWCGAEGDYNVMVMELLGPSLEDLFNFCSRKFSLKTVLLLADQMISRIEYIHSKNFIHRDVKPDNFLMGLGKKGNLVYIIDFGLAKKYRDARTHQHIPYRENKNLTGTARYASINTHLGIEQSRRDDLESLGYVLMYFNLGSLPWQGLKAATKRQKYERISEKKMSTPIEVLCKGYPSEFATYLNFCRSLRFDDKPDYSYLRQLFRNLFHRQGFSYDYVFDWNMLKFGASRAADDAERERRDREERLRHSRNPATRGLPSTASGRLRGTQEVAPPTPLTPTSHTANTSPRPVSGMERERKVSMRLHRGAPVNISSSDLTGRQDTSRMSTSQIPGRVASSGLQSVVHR
Kappa-type opioid receptor, sequence (P41145 whole entry): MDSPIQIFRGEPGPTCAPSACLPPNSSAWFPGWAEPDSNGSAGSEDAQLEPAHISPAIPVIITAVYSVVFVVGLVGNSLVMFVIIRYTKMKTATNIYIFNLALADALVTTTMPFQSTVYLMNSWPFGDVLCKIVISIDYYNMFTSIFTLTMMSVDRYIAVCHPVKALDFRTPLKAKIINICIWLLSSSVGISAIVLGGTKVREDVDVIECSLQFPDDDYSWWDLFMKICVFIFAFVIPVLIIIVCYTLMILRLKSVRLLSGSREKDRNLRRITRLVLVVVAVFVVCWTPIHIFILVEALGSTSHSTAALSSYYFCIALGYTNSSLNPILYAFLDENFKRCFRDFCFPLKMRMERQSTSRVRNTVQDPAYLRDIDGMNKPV
Leukocyte tyrosine kinase receptor, sequence (P29376 whole entry): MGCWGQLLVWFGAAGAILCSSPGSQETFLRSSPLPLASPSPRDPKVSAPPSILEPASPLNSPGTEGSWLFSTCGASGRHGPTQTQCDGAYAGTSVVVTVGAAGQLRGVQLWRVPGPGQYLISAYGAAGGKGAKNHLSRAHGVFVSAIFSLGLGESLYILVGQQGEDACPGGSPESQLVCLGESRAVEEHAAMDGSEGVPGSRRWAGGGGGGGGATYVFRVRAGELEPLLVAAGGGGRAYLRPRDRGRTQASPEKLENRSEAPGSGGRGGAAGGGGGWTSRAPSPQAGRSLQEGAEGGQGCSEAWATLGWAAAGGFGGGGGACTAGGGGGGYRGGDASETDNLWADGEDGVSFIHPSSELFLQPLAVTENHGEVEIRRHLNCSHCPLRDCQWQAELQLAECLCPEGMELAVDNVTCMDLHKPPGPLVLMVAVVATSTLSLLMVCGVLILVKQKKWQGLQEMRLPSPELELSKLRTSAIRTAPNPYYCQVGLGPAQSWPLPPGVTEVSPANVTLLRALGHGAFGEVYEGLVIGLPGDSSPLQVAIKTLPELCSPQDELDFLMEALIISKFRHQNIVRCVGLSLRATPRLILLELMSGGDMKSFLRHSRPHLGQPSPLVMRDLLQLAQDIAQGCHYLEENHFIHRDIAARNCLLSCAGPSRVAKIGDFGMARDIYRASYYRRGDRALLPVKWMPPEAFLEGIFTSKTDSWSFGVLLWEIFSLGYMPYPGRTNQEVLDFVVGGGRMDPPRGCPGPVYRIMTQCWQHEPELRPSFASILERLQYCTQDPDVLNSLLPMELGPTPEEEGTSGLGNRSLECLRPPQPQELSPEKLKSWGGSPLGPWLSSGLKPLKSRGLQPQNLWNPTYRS
Sphingosine 1-phosphate receptor 1, sequence (P21453 whole entry): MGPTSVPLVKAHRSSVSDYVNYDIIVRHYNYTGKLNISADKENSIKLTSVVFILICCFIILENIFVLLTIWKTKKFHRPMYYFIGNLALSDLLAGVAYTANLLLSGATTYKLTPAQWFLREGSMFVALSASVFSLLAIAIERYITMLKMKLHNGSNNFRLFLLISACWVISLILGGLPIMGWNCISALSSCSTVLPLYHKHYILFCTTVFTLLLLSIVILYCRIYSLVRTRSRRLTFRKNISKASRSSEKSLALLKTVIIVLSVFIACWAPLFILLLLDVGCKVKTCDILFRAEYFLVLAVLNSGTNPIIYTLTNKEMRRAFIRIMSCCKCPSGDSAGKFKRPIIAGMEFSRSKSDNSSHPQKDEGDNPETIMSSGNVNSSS
Protein Rev, sequence (P04618 whole entry): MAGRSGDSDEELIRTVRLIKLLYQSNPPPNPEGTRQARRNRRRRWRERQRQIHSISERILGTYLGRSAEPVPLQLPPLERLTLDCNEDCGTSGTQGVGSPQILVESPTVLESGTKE
Activated CDC42 kinase 1, sequence (Q07912 whole entry): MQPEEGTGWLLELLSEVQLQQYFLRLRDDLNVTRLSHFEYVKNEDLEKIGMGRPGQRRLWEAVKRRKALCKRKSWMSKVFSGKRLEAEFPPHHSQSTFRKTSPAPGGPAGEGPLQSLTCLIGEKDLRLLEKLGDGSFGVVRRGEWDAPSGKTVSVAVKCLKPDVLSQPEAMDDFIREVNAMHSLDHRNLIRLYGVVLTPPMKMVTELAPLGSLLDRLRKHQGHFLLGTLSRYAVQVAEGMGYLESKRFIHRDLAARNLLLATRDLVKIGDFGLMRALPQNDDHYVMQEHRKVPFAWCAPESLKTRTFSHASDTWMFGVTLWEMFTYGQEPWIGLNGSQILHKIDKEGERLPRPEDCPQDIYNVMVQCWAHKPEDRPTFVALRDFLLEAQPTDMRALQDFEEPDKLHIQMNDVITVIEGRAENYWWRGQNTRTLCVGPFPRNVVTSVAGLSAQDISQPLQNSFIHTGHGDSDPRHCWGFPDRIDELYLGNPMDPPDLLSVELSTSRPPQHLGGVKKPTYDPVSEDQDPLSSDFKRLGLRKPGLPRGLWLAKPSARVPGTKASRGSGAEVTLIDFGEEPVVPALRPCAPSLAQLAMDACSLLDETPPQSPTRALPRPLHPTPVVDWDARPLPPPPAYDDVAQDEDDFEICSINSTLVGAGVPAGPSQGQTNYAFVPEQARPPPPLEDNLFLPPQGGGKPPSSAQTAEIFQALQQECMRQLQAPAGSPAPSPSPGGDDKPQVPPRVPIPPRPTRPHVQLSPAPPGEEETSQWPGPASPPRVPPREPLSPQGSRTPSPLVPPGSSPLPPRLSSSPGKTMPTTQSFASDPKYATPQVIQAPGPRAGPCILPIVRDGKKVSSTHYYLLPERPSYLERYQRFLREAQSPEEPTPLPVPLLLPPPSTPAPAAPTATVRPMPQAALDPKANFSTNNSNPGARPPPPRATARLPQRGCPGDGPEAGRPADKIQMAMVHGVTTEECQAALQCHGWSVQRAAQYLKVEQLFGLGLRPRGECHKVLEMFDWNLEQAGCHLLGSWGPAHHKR
Aurora kinase B, sequence (Q96GD4 whole entry): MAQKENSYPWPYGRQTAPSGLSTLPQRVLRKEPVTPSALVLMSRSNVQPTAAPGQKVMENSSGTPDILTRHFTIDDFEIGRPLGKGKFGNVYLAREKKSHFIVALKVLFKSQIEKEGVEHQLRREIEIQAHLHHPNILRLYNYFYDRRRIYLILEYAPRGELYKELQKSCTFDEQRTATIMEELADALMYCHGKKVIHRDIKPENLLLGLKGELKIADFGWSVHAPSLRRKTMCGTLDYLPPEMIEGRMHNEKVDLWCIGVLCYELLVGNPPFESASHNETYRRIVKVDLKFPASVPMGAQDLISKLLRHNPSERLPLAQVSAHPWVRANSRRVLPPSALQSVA
G protein-coupled receptor kinase 5, sequence (P34947 whole entry): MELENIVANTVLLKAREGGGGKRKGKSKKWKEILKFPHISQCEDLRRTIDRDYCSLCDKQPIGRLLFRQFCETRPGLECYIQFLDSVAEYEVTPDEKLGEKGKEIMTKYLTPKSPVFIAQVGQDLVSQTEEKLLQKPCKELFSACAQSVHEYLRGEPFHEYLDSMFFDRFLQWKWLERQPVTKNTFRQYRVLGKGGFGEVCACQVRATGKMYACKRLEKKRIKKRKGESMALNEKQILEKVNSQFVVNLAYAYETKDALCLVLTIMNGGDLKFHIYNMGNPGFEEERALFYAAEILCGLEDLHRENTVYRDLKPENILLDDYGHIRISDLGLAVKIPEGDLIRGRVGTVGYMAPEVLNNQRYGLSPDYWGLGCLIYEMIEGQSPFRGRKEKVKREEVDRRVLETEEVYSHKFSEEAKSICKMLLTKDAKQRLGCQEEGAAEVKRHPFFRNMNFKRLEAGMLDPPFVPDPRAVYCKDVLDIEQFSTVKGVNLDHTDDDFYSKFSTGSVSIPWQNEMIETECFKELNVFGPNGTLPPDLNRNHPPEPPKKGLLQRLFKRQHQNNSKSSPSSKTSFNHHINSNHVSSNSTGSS

`COc1cc2c(cc1F)C(c1ccccc1Cl)=Nc1c(n[nH]c1C)N2` [RG-1530]: the values for the Ki in test [1], in test [2] and in test [3] were > 7.94 µM (inactive), 0.501 µM (active) and 0.0126 µM (active), respectively.
As for `O=C(O)c1ccc(NC2=C(Cl)C(=O)c3ccccc3C2=O)cc1`, the 50% inhibitory concentration (IC50) was 14.5 µM (active) in test [4] and > 50 µM (inactive) in test [6]. Besides, the EC50 in test [5] was 4.97 µM (active).
`O=C(O)c1ccc2c3c(ncnc13)-c1ccccc1C2=O`: the values for the IC50 in test [7], in test [8] and in [9] were > 100 µM (not active), 9.78 µM (active) and 3.51 µM (active), respectively.
Take `Cc1ccc2nccc(NC(=O)Nc3cccc(C(F)(F)F)n3)c2c1`: the Ki was 0.316 µM (active) in [10]; 0.251 µM (active) in [11]; > 3.16 µM (inactive) in [12]; > 3.98 µM (inactive) in test [13]; > 3.98 µM (inactive) in test [14]; > 1.26 µM (inactive) in test [15]. The Ki in [16] is > 3.16 µM (inactive).
Consider `COC(=O)CCS(=O)(=O)c1nc(-c2ccccc2)cc(C(F)(F)F)n1`, for which the IC50 in [17] was 4.78 µM (active); in [18] it was 28.4 µM (not active). Further, the CC50 in [19] was 19.4 µM (active).
As for `Cc1c(/N=C2\C=CC(=O)c3ccccc32)c(=O)n(-c2ccccc2)n1C`, the IC50 is > 66.6 µM (inactive) in test [20] and 12.1 µM (active) in [21].
For `CCOC(=O)c1c2c(n(Cc3ccccc3)c1C)C(=O)C(=O)c1ccccc1-2`, the AC50 in [22] was 15.7 µM (active); in test [24], 6.77 µM (active); in test [25], 2.3 µM (active). Also, in test [23], the CC50 is 0.87 µM (active).
